Measurements reported in PubChem BioAssay (NCI).
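Grown in 96-well plates, cells were treated for 48 hours with each compound at five concentrations. Insufficient inhibition: endpoint recorded as highest concentration tested. At the TGI there is no net growth.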

Legend:
Experiment in all cases: NCI anticancer screen, dose series, 48 h
[1] = system: 786-0 renal
[2] = system: CAKI-1 renal
[3] = system: OVCAR-5 ovarian
[4] = system: A549 NSCLC
[5] = system: HOP-62 NSCLC
[6] = system: UACC-62 melanoma
[7] = system: IGROV1 ovarian
[8] = system: UACC-257 melanoma
[9] = system: CCRF-CEM leukemia
[10] = system: OVCAR-8 ovarian
[11] = system: T-47D breast
[12] = system: SK-MEL-28 melanoma
[13] = system: MDA-MB-435
[14] = system: MOLT-4 leukemia

Structure (SMILES) | TGI [1] | TGI [2] | TGI [3] | TGI [4] | TGI [5] | TGI [6] | TGI [7] | TGI [8] | TGI [9] | TGI [10] | TGI [11] | TGI [12] | TGI [13] | TGI [14]
CN(OC(=O)CC(=O)c1ccccc1)C(=O)Cc1ccccc1 | > 100 µM | > 100 µM | > 100 µM | > 100 µM | > 100 µM | > 100 µM | > 100 µM | > 100 µM | > 100 µM | > 100 µM |  |  |  | 
COC(=O)C1=C(O)C(C(=O)OC)[C@]2(O)[C@H](C(=O)OC)[C@H]1C[C@@H](c1ccc(Cl)cc1Cl)[C@H]2C(=O)OC (stereo partly specified) | > 100 µM | > 100 µM | 40.7 µM | 24.5 µM | 20.9 µM | 35.3 µM | 19.3 µM | 28.7 µM |  | 18 µM | 96.9 µM | 53.6 µM | 21.2 µM | 8.98 µM
Nc1nc([O-])c([I+]c2ccccc2)c(=O)[nH]1 | > 100 µM | > 100 µM | > 100 µM | > 100 µM | > 100 µM |  | > 100 µM | > 100 µM | > 100 µM | > 100 µM |  | > 100 µM | > 100 µM | > 100 µM
Cc1ccc(/C(O)=C/c2nc3ccccc3nc2NC23CC4CC(CC(C4)C2)C3)cc1 | > 10 µM | > 10 µM | > 10 µM | > 10 µM | > 10 µM | > 10 µM | > 10 µM | > 10 µM |  | > 10 µM | > 10 µM | > 10 µM | > 10 µM | > 10 µM
COC(=O)/C=C/COCC1C2CCC(=O)C21 (stereo unspecified) | > 100 µM | 51.5 µM | > 100 µM | > 100 µM | > 100 µM | > 100 µM | > 100 µM | > 100 µM | > 100 µM | > 100 µM |  | > 100 µM | > 100 µM | > 100 µM
C=CCN1C(=O)/C(=C/c2ccccc2)N=C1SC/C=C/C | > 100 µM | > 100 µM |  | > 100 µM | > 100 µM | > 100 µM | > 100 µM | 74.5 µM | > 100 µM | > 100 µM | > 100 µM | > 100 µM | > 100 µM | 
N#Cc1cccc(Nc2ccccc2SSc2ccccc2Nc2cccc(C#N)c2)c1 | 12 µM |  | > 21.5 µM | > 21.5 µM | > 21.5 µM | > 21.5 µM | 16.9 µM | > 21.5 µM | 14.9 µM | > 21.5 µM | > 21.5 µM | > 21.5 µM | 18.2 µM | 21.4 µM
CCOC(=O)N(C)CCC1CC=CC(=O)C1c1cccc(OC)c1OC (stereo unspecified) | 45.7 µM | 91.6 µM | 46.7 µM | 91 µM | > 100 µM | 32.5 µM | > 100 µM | 39.3 µM | 35.7 µM | > 100 µM | 77.1 µM |  | 28.8 µM | 64.5 µM
CCOC(=O)Nn1cnnc1Cc1ccccc1 | > 100 µM | > 100 µM | > 100 µM | > 100 µM | > 100 µM | > 100 µM | > 100 µM | > 100 µM | > 100 µM | > 100 µM | > 100 µM |  | > 100 µM | > 100 µM
COc1c2c(c(OC)c3c(=O)cc(C/C(=N/NC(=O)C[n+]4ccccc4)C(=O)Nc4cc(C)ccc4C)oc13)OCO2 | > 100 µM | > 100 µM | > 100 µM | > 100 µM | > 100 µM | > 100 µM | > 100 µM | > 100 µM | > 100 µM | > 100 µM |  | > 100 µM |  | > 100 µM
c1ccc2c(c1)Sc1ccccc1N2CCCN1c2ccccc2Sc2ccccc21 | 45.2 µM | > 100 µM | > 100 µM | > 100 µM | > 100 µM | > 100 µM | > 100 µM | > 100 µM |  | > 100 µM | > 100 µM | > 100 µM | > 100 µM | > 100 µM
COC1=C(OC)C(=O)c2cc(SC)c(=O)c(SC)cc2C1=O | 35.2 µM | > 100 µM |  | 43.8 µM | 31.2 µM | 4.45 µM | > 100 µM | 21.6 µM | 4.93 µM | 50.9 µM |  | 26.7 µM |  | 17.4 µM
Cc1c2[nH]c3ccc(Br)cc3c2c(C)c2[nH]ccc(=O)c12 | 25.1 µM | 28 µM | 30 µM | 25.7 µM | 28.6 µM |  |  | 34.9 µM | 31.6 µM | 76.9 µM |  | 34.8 µM |  | 28 µM
CCCOP1(=O)C=C(C)C(Cl)=C(C)C1 (stereo unspecified) | 36.7 µM |  | 77.4 µM | 61.3 µM | > 100 µM | 32.4 µM | > 100 µM | 45.7 µM | 59.3 µM | > 100 µM |  | 43.5 µM |  | 64.9 µM
COc1ccccc1/[N+]([O-])=C/c1ccccc1OC(=S)S | 85.9 µM | > 100 µM | > 100 µM | > 100 µM |  | > 100 µM | 77.2 µM | > 100 µM |  | 66.2 µM | > 100 µM | > 100 µM | 36 µM | > 100 µM
COC(=O)CC(SCCO)SCCO | > 100 µM | > 100 µM | > 100 µM | > 100 µM | > 100 µM | > 100 µM | > 100 µM | > 100 µM | > 100 µM | > 100 µM |  | > 100 µM | > 100 µM | > 100 µM
CC(SC(=S)N1CCCC1)C(=O)Nc1nnc(-c2ccc(Cl)cc2)o1 (stereo unspecified) | 32.9 µM |  | > 100 µM | > 100 µM | > 100 µM | > 100 µM | > 100 µM | > 100 µM |  | > 100 µM | > 100 µM | > 100 µM | > 100 µM | 
CN1NC2=NCCN=C3NN(C)C(=NCCN=C1S2)S3 | > 100 µM |  | > 100 µM | > 100 µM | > 100 µM | > 100 µM | > 100 µM | > 100 µM | > 100 µM | > 100 µM |  | > 100 µM |  | > 100 µM
